Key:
[1] = Inhibition of acetylation of histone-4 in human T-24 cancer cells
Histone deacetylase = test: Inhibitory concentration determined against Histone deacetylase from Eimeria tenella

SMILES | EC50 [1] | IC50 (Histone deacetylase)
O=C(/C=C/c1ccc(S(=O)(=O)Nc2ccc(-c3ccccc3)cc2)cc1)NO | 1000 nM | 
COc1ccc(S(=O)(=O)Nc2ccc(/C=C/C(=O)NO)cc2)cc1OC [US8796330, 90] | 1000 nM | 
O=C(/C=C/c1ccc(NS(=O)(=O)c2ccc(-c3ccccc3)cc2)cc1)NO [US8796330, 120] | 1000 nM | 
COc1ccc(S(=O)(=O)Nc2ccc(/C=C/C(=O)NO)cc2)cc1 [US8796330, 113] | 5000 nM | 
C/C(=C\c1ccc(NS(=O)(=O)c2ccccc2)cc1)C(=O)NO [US8796330, 91] | > 25000 nM | 
Cc1ccc(S(=O)(=O)Nc2ccc(/C=C/C(=O)NO)cc2)cc1 [US8796330, 108] | 10000 nM | 
CCC(C)[C@@H]1NC(=O)[C@H](Cc2cn(OC)c3ccccc23)NC(=O)[C@H](CCCCCC(=O)OC)NC(=O)[C@H]2CCCCN2C1=O (stereo partly drawn) [6-[(6S,9S,12S,14aR)-6-sec-Butyl-9-(1-methoxy-1H-indol-3-ylmethyl)-5,8,11,14-tetraoxo-tetradecahydro-4a,7,10,13-tetraaza-benzocyclododecen-12-yl]-hexanoic acid methyl ester] |  | 0.8 nM
CCC(C)[C@@H]1NC(=O)[C@H](Cc2cn(OC)c3ccccc23)NC(=O)[C@H](CCCCCC(=O)C(C)O)NC(=O)[C@H]2CCCCN2C1=O (stereo partly drawn) [(6S,9S,12S,14aR)-6-sec-Butyl-12-(7-hydroxy-6-oxo-octyl)-9-(1-methoxy-1H-indol-3-ylmethyl)-decahydro-4a,7,10,13-tetraaza-benzocyclododecene-5,8,11,14-tetraone] |  | 4 nM
COc1ccc(NC(=O)Nc2ccc(/C=C/C(=O)NO)cc2)cc1OC | > 25000 nM | 
CCC(C)[C@@H]1NC(=O)[C@H](Cc2cn(OC)c3ccccc23)NC(=O)[C@H](CCCCCC(=O)NO)NC(=O)[C@H]2CCCCN2C1=O (stereo partly drawn) [6-[(6S,9S,12S,14aR)-6-sec-Butyl-9-(1-methoxy-1H-indol-3-ylmethyl)-5,8,11,14-tetraoxo-tetradecahydro-4a,7,10,13-tetraaza-benzocyclododecen-12-yl]-hexanoic acid hydroxyamide] |  | 4 nM
CCC(C)[C@@H]1NC(=O)[C@H](Cc2cn(OC)c3ccccc23)NC(=O)[C@H](CCCCCC(=O)O)NC(=O)[C@H]2CCCCN2C1=O (stereo partly drawn) [6-[(6S,9S,12S,14aR)-6-sec-Butyl-9-(1-methoxy-1H-indol-3-ylmethyl)-5,8,11,14-tetraoxo-tetradecahydro-4a,7,10,13-tetraaza-benzocyclododecen-12-yl]-hexanoic acid] |  | 30 nM
CCC(C)[C@@H]1NC(=O)[C@H](Cc2cn(OC)c3ccccc23)NC(=O)[C@H](CCCCCC(=O)C2CO2)NC(=O)[C@H]2CCCCN2C1=O (stereo partly drawn) [(6S,9S,12S,14aR)-6-sec-Butyl-9-(1-methoxy-1H-indol-3-ylmethyl)-12-(6-oxiranyl-6-oxo-hexyl)-decahydro-4a,7,10,13-tetraaza-benzocyclododecene-5,8,11,14-tetraone] |  | 1 nM
Cc1ccc(NS(=O)(=O)c2ccc(/C=C/C(=O)NO)cc2)cc1 [US8796330, 161] | 1000 nM | 
CN(c1ccc(/C=C/C(=O)NO)cc1)S(=O)(=O)c1ccccc1 | > 25000 nM | 

More lines, now with the values ahead:

EC50 [1] | IC50 (Histone deacetylase) | SMILES
> 25000 nM |  | CC(C)C(Cc1ccc(NS(=O)(=O)c2ccccc2)cc1)C(=O)NO (stereo not given) [US8796330, 81]
5000 nM |  | O=C(NO)c1ccc(NS(=O)(=O)c2ccccc2)cc1 [4-Benzenesulfonylamino-N-hydroxy-benzamide]
5000 nM |  | O=C(CCc1ccc(NS(=O)(=O)c2ccccc2)cc1)NO [US8796330, 38]
> 25000 nM |  | CC(Cc1ccc(NS(=O)(=O)c2ccccc2)cc1)C(=O)NO (stereo not given) [3-(4-Benzenesulfonylamino-phenyl)-N-hydroxy-2-methyl-propionamide]
> 25000 nM |  | O=C(Cc1ccc(NS(=O)(=O)c2ccccc2)cc1)NO [2-(4-Benzenesulfonylamino-phenyl)-N-hydroxy-acetamide]
> 25000 nM |  | O=C(CCCc1ccc(NS(=O)(=O)c2ccccc2)cc1)NO [US8796330, 42]
